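Tested at 5 concentrations; 48 h exposure; 96-well plates; endpoints linearly interpolated, else capped at highest concentration. TGI: total growth inhibition.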
What was measured:
Assay in all cases: DTP human tumour cell line panel, 48 h
786-0 renal = tested on: 786-0 renal
A498 renal = tested on: A498 renal
A549 NSCLC = tested on: A549 NSCLC
ACHN renal = tested on: ACHN renal
CAKI-1 renal = tested on: CAKI-1 renal
CCRF-CEM leukemia = tested on: CCRF-CEM leukemia
COLO 205 colon = tested on: COLO 205 colon
DLD-1 colon = tested on: DLD-1 colon
DMS 114 small cell lung = tested on: DMS 114 small cell lung
DMS 273 small cell lung = tested on: DMS 273 small cell lung
EKVX NSCLC = tested on: EKVX NSCLC
HCC-2998 colon = tested on: HCC-2998 colon
HCT-116 colon = tested on: HCT-116 colon
HCT-15 colon = tested on: HCT-15 colon
HL-60(TB) leukemia = tested on: HL-60(TB) leukemia
HOP-62 NSCLC = tested on: HOP-62 NSCLC
HOP-92 NSCLC = tested on: HOP-92 NSCLC
HT29 colon = tested on: HT29 colon
IGROV1 ovarian = tested on: IGROV1 ovarian
K-562 leukemia = tested on: K-562 leukemia
KM12 colon = tested on: KM12 colon
KM20L2 colon = tested on: KM20L2 colon
LOX IMVI melanoma = tested on: LOX IMVI melanoma
LXFL 529 NSCLC = tested on: LXFL 529 NSCLC
M14 melanoma = tested on: M14 melanoma
M19-MEL melanoma = tested on: M19-MEL melanoma
MALME-3M melanoma = tested on: MALME-3M melanoma
MOLT-4 leukemia = tested on: MOLT-4 leukemia
NCI-H226 lung = tested on: NCI-H226 lung
NCI-H23 lung = tested on: NCI-H23 lung
NCI-H460 lung = tested on: NCI-H460 lung
NCI-H522 lung = tested on: NCI-H522 lung
OVCAR-3 ovarian = tested on: OVCAR-3 ovarian
OVCAR-4 ovarian = tested on: OVCAR-4 ovarian
OVCAR-5 ovarian = tested on: OVCAR-5 ovarian
OVCAR-8 ovarian = tested on: OVCAR-8 ovarian
RPMI-8226 leukemia = tested on: RPMI-8226 leukemia
RXF 393 renal = tested on: RXF 393 renal
RXF-631 renal = tested on: RXF-631 renal
SF-268 CNS = tested on: SF-268 CNS
SF-295 CNS = tested on: SF-295 CNS
SF-539 CNS = tested on: SF-539 CNS
SK-MEL-2 melanoma = tested on: SK-MEL-2 melanoma
SK-MEL-28 melanoma = tested on: SK-MEL-28 melanoma
SK-MEL-5 melanoma = tested on: SK-MEL-5 melanoma
SK-OV-3 ovarian = tested on: SK-OV-3 ovarian
SN12C renal = tested on: SN12C renal
SNB-19 CNS = tested on: SNB-19 CNS
SNB-75 CNS = tested on: SNB-75 CNS
SNB-78 CNS = tested on: SNB-78 CNS
SW-620 colon = tested on: SW-620 colon
TK-10 renal = tested on: TK-10 renal
U251 CNS = tested on: U251 CNS
UACC-257 melanoma = tested on: UACC-257 melanoma
UACC-62 melanoma = tested on: UACC-62 melanoma
UO-31 renal = tested on: UO-31 renal
XF 498 CNS = tested on: XF 498 CNS

## CCc1c(C)[nH]c2c1/C(=N/N=C1\CCCc3[nH]c(C)c(CC)c31)CCC2
786-0 renal
  TGI: > 100 µM
A498 renal
  TGI: 75 µM
A549 NSCLC
  TGI: > 100 µM
ACHN renal
  TGI: 69.2 µM
CAKI-1 renal
  TGI: > 100 µM
CCRF-CEM leukemia
  TGI: 76.4 µM
COLO 205 colon
  TGI: 41.6 µM
DLD-1 colon
  TGI: > 100 µM
DMS 114 small cell lung
  TGI: 34.1 µM
DMS 273 small cell lung
  TGI: 36.7 µM
EKVX NSCLC
  TGI: > 100 µM
HCC-2998 colon
  TGI: > 100 µM
HCT-116 colon
  TGI: 50.5 µM
HCT-15 colon
  TGI: 52.5 µM
HL-60(TB) leukemia
  TGI: 36.4 µM
HOP-62 NSCLC
  TGI: > 100 µM
HOP-92 NSCLC
  TGI: 51.5 µM
HT29 colon
  TGI: 81.3 µM
IGROV1 ovarian
  TGI: 83.6 µM
K-562 leukemia
  TGI: > 100 µM
KM12 colon
  TGI: 31.3 µM
KM20L2 colon
  TGI: > 100 µM
LOX IMVI melanoma
  TGI: 54.6 µM
LXFL 529 NSCLC
  TGI: 30.2 µM
M14 melanoma
  TGI: 41.2 µM
M19-MEL melanoma
  TGI: 48.3 µM
MALME-3M melanoma
  TGI: > 100 µM
MOLT-4 leukemia
  TGI: 39.4 µM
NCI-H226 lung
  TGI: 39.7 µM
NCI-H23 lung
  TGI: 62.7 µM
NCI-H460 lung
  TGI: 43.2 µM
NCI-H522 lung
  TGI: 33.1 µM
OVCAR-3 ovarian
  TGI: 39.7 µM
OVCAR-4 ovarian
  TGI: 52 µM
OVCAR-5 ovarian
  TGI: > 100 µM
OVCAR-8 ovarian
  TGI: 78.2 µM
RPMI-8226 leukemia
  TGI: 33.9 µM
RXF 393 renal
  TGI: 70.5 µM
RXF-631 renal
  TGI: > 100 µM
SF-268 CNS
  TGI: 61.9 µM
SF-295 CNS
  TGI: 46.6 µM
SF-539 CNS
  TGI: 81.5 µM
SK-MEL-2 melanoma
  TGI: > 100 µM
SK-MEL-28 melanoma
  TGI: 35.9 µM
SK-MEL-5 melanoma
  TGI: 27.6 µM
SK-OV-3 ovarian
  TGI: 78.4 µM
SN12C renal
  TGI: > 100 µM
SNB-19 CNS
  TGI: > 100 µM
SNB-75 CNS
  TGI: 50.1 µM
SNB-78 CNS
  TGI: 85.8 µM
SW-620 colon
  TGI: 78 µM
TK-10 renal
  TGI: > 100 µM
U251 CNS
  TGI: 35.4 µM
UACC-257 melanoma
  TGI: 31.9 µM
UACC-62 melanoma
  TGI: 48.8 µM
UO-31 renal
  TGI: 39.5 µM
XF 498 CNS
  TGI: 34.4 µM
